Measurements published in US10398751B2, “Pharmaceutical compositions of water soluble peptides with poor solubility in isotonic conditions and methods for their use” (STRONGBRIDGE IRELAND LIMITED, priority 2016, dated 2019).
Structures can show the parent of a compound that is named as a salt. Where two headings read alike, the source gives them in different places.

Experiment: Solubility screening of veldoreotide acetate (10 mg, incremental volumes of medium, USP definition)
Assay type: physicochemical
Source text: The solubility of veldoreotide acetate in aqueous media was screened by the following method. A fixed amount of 10 milligrams of the peptide was weighed and dissolved at ambient temperature by increased (incremental) volumes of the tested medium until a complete solubility was observed, i.e, clear/transparent solution and absence of any precipitates (the solubility endpoint values were defined according to USP guidance). Following the results of the screening studies, several media were selected for verification studies based on quantitative assessment of the peptide concentration by HPLC (maximal solubility). The results of the screening study are depicted in Table 1 while the results of the verification studies are included in Table 2.

SMILES: C[C@@H](O)[C@@H]1NC(=O)[C@H](CCCCN)NC(=O)[C@@H](Cc2c[nH]c3ccccc23)NC(=O)[C@H](Cc2c[nH]c3ccccc23)NC(=O)[C@H](Cc2ccccc2)NC(=O)CCCNC(=O)CCCN(CC(N)=O)C(=O)[C@H](Cc2ccccc2)NC1=O [Veldoreotide Acetate, Cyclo(-γ-aminobutyryl-L-phenylalanyl-L-tryptophanyl-D-tryptophanyl-L-lysyl-L-threonyl-L-phenylalanyl-N-carbamoylmethyl-γ-aminobutyryl), acetate salt]
- solubility (Acetone (USP), 10 mg in Acetone (USP), read-out: 0.5 ml Soluble (0.02 g/ml; 20 mg/ml)): > 20 mg/mL
- solubility (Acetone (USP), 10 mg in Acetone (USP), read-out: 1 ml Sparingly soluble (0.01 g/ml; 10 mg/ml)): > 10 mg/mL
- solubility (Acetone (USP), 0.1 ml Freely soluble (0.1 g/ml), 10 mg in Acetone (USP)): > 100 mg/mL
- solubility (Acetone (USP), 10 ml Slightly soluble (0.001 g/ml; 1 mg/ml), 10 mg in Acetone (USP)): > 1 mg/mL
- solubility (Dextrose 5% (USP), 10 mg in Dextrose 5% (USP), read-out: 0.01 ml Very soluble (1 g/ml)): < 1000 mg/mL
- solubility (Dextrose 5% (USP), 10 mg in Dextrose 5% (USP), read-out: 0.5 ml Soluble (0.02 g/ml; 20 mg/ml)): > 20 mg/mL
- solubility (Dextrose 5% (USP), 10 mg in Dextrose 5% (USP), read-out: 1 ml Sparingly soluble (0.01 g/ml; 10 mg/ml)): > 10 mg/mL
- solubility (Dextrose 5% (USP), 0.1 ml Freely soluble (0.1 g/ml), 10 mg in Dextrose 5% (USP)): > 100 mg/mL
- solubility (Dextrose 5% (USP), 10 ml Slightly soluble (0.001 g/ml; 1 mg/ml), 10 mg in Dextrose 5% (USP)): > 1 mg/mL
- solubility (Ethanol (USP), 10 mg in Ethanol (USP), read-out: 0.01 ml Very soluble (1 g/ml)): < 1000 mg/mL
- solubility (Ethanol (USP), 10 mg in Ethanol (USP), read-out: 0.5 ml Soluble (0.02 g/ml; 20 mg/ml)): > 20 mg/mL
- solubility (Ethanol (USP), 10 mg in Ethanol (USP), read-out: 1 ml Sparingly soluble (0.01 g/ml; 10 mg/ml)): > 10 mg/mL
- solubility (Ethanol (USP), 0.1 ml Freely soluble (0.1 g/ml), 10 mg in Ethanol (USP)): > 100 mg/mL
- solubility (Ethanol (USP), 10 ml Slightly soluble (0.001 g/ml; 1 mg/ml), 10 mg in Ethanol (USP)): > 1 mg/mL
- solubility (Lactic acid 37 mM, Mannitol 250 mM, pH 4.3, 10 mg in Lactic acid 37 mM, Mannitol 250 mM (pH 4.3), read-out: 0.01 ml Very soluble (1 g/ml)): < 1000 mg/mL
- solubility (Lactic acid 37 mM, Mannitol 250 mM, pH 4.3, 10 mg in Lactic acid 37 mM, Mannitol 250 mM (pH 4.3), read-out: 0.5 ml Soluble (0.02 g/ml; 20 mg/ml)): > 20 mg/mL
- solubility (Lactic acid 37 mM, Mannitol 250 mM, pH 4.3, 10 mg in Lactic acid 37 mM, Mannitol 250 mM (pH 4.3), read-out: 1 ml Sparingly soluble (0.01 g/ml; 10 mg/ml)): > 10 mg/mL
- solubility (Lactic acid 37 mM, Mannitol 250 mM, pH 4.3, 0.1 ml Freely soluble (0.1 g/ml), 10 mg in Lactic acid 37 mM, Mannitol 250 mM (pH 4.3)): > 100 mg/mL
- solubility (Lactic acid 37 mM, Mannitol 250 mM, pH 4.3, 10 ml Slightly soluble (0.001 g/ml; 1 mg/ml), 10 mg in Lactic acid 37 mM, Mannitol 250 mM (pH 4.3)): > 1 mg/mL
- solubility (PBS, pH 7.2, 10 mg in PBS pH 7.2, read-out: 0.01 ml Very soluble (1 g/ml)): < 1000 mg/mL
- solubility (PBS, pH 7.2, 10 mg in PBS pH 7.2, read-out: 0.5 ml Soluble (0.02 g/ml; 20 mg/ml)): < 20 mg/mL
- solubility (PBS, pH 7.2, 10 mg in PBS pH 7.2, read-out: 1 ml Sparingly soluble (0.01 g/ml; 10 mg/ml)): < 10 mg/mL
- solubility (PBS, pH 7.2, 0.1 ml Freely soluble (0.1 g/ml), 10 mg in PBS pH 7.2): < 100 mg/mL
- solubility (PBS, pH 7.2, 10 ml Slightly soluble (0.001 g/ml; 1 mg/ml), 10 mg in PBS pH 7.2): < 1 mg/mL
- solubility (Propylene glycol, 10 mg in Propylene glycol, read-out: 0.01 ml Very soluble (1 g/ml)): < 1000 mg/mL
- solubility (Propylene glycol, 10 mg in Propylene glycol, read-out: 0.5 ml Soluble (0.02 g/ml; 20 mg/ml)): > 20 mg/mL
- solubility (Propylene glycol, 10 mg in Propylene glycol, read-out: 1 ml Sparingly soluble (0.01 g/ml; 10 mg/ml)): > 10 mg/mL
- solubility (Propylene glycol, 0.1 ml Freely soluble (0.1 g/ml), 10 mg in Propylene glycol): > 100 mg/mL
- solubility (Propylene glycol, 10 ml Slightly soluble (0.001 g/ml; 1 mg/ml), 10 mg in Propylene glycol): > 1 mg/mL
- solubility (Saline (USP) (0.9% NaCl), pH 4.5, 10 mg in Saline (USP) (0.9% NaCl) pH 4.5, read-out: 0.01 ml Very soluble (1 g/ml)): < 1000 mg/mL
- solubility (Saline (USP) (0.9% NaCl), pH 4.5, 10 mg in Saline (USP) (0.9% NaCl) pH 4.5, read-out: 0.5 ml Soluble (0.02 g/ml; 20 mg/ml)): < 20 mg/mL
- solubility (Saline (USP) (0.9% NaCl), pH 4.5, 10 mg in Saline (USP) (0.9% NaCl) pH 4.5, read-out: 1 ml Sparingly soluble (0.01 g/ml; 10 mg/ml)): < 10 mg/mL
- solubility (Saline (USP) (0.9% NaCl), pH 4.5, 0.1 ml Freely soluble (0.1 g/ml), 10 mg in Saline (USP) (0.9% NaCl) pH 4.5): < 100 mg/mL
- solubility (Saline (USP) (0.9% NaCl), pH 4.5, 10 ml Slightly soluble (0.001 g/ml; 1 mg/ml), 10 mg in Saline (USP) (0.9% NaCl) pH 4.5): < 1 mg/mL
- solubility (caprylic acid, 10 mg in Caprylic acid, read-out: 0.01 ml Very soluble (1 g/ml)): < 1000 mg/mL
- solubility (caprylic acid, 10 mg in Caprylic acid, read-out: 0.5 ml Soluble (0.02 g/ml; 20 mg/ml)): > 20 mg/mL
- solubility (caprylic acid, 10 mg in Caprylic acid, read-out: 1 ml Sparingly soluble (0.01 g/ml; 10 mg/ml)): > 10 mg/mL
- solubility (caprylic acid, 0.1 ml Freely soluble (0.1 g/ml), 10 mg in Caprylic acid): < 100 mg/mL
- solubility (caprylic acid, 10 ml Slightly soluble (0.001 g/ml; 1 mg/ml), 10 mg in Caprylic acid): > 1 mg/mL
- solubility (double distilled water, 10 mg in DDW (Double distilled water), read-out: 0.01 ml Very soluble (1 g/ml)): < 1000 mg/mL
- solubility (double distilled water, 10 mg in DDW (Double distilled water), read-out: 0.5 ml Soluble (0.02 g/ml; 20 mg/ml)): > 20 mg/mL
- solubility (double distilled water, 10 mg in DDW (Double distilled water), read-out: 1 ml Sparingly soluble (0.01 g/ml; 10 mg/ml)): > 10 mg/mL
- solubility (double distilled water, 0.1 ml Freely soluble (0.1 g/ml), 10 mg in DDW (Double distilled water)): > 100 mg/mL
- solubility (double distilled water, 10 ml Slightly soluble (0.001 g/ml; 1 mg/ml), 10 mg in DDW (Double distilled water)): > 1 mg/mL
- solubility (glycerol, 10 mg in Glycerol, read-out: 0.01 ml Very soluble (1 g/ml)): < 1000 mg/mL
- solubility (glycerol, 10 mg in Glycerol, read-out: 0.5 ml Soluble (0.02 g/ml; 20 mg/ml)): > 20 mg/mL
- solubility (glycerol, 10 mg in Glycerol, read-out: 1 ml Sparingly soluble (0.01 g/ml; 10 mg/ml)): > 10 mg/mL
- solubility (glycerol, 0.1 ml Freely soluble (0.1 g/ml), 10 mg in Glycerol): < 100 mg/mL
- solubility (glycerol, 10 ml Slightly soluble (0.001 g/ml; 1 mg/ml), 10 mg in Glycerol): > 1 mg/mL
- solubility (oleic acid, 10 mg in Oleic acid, read-out: 0.01 ml Very soluble (1 g/ml)): < 1000 mg/mL
- solubility (oleic acid, 10 mg in Oleic acid, read-out: 0.5 ml Soluble (0.02 g/ml; 20 mg/ml)): < 20 mg/mL
- solubility (oleic acid, 10 mg in Oleic acid, read-out: 1 ml Sparingly soluble (0.01 g/ml; 10 mg/ml)): < 10 mg/mL
- solubility (oleic acid, 0.1 ml Freely soluble (0.1 g/ml), 10 mg in Oleic acid): < 100 mg/mL
- solubility (oleic acid, 10 ml Slightly soluble (0.001 g/ml; 1 mg/ml), 10 mg in Oleic acid): < 1 mg/mL
- solubility (refined vegetable oils (olive, cotton, coconut, canola), 10 mg in Refined vegetable oils, Olive, Cotton, Coconut, Canola, read-out: 0.01 ml Very soluble (1 g/ml)): < 1000 mg/mL
- solubility (refined vegetable oils (olive, cotton, coconut, canola), 10 mg in Refined vegetable oils, Olive, Cotton, Coconut, Canola, read-out: 0.5 ml Soluble (0.02 g/ml; 20 mg/ml)): < 20 mg/mL
- solubility (refined vegetable oils (olive, cotton, coconut, canola), 10 mg in Refined vegetable oils, Olive, Cotton, Coconut, Canola, read-out: 1 ml Sparingly soluble (0.01 g/ml; 10 mg/ml)): < 10 mg/mL
- solubility (refined vegetable oils (olive, cotton, coconut, canola), 0.1 ml Freely soluble (0.1 g/ml), 10 mg in Refined vegetable oils, Olive, Cotton, Coconut, Canola): < 100 mg/mL
- solubility (refined vegetable oils (olive, cotton, coconut, canola), 10 ml Slightly soluble (0.001 g/ml; 1 mg/ml), 10 mg in Refined vegetable oils, Olive, Cotton, Coconut, Canola): < 1 mg/mL
- solubility (water for injection (WFI-USP), 10 mg in WFI-USP (water for injection), read-out: 0.01 ml Very soluble (1 g/ml)): < 1000 mg/mL
- solubility (water for injection (WFI-USP), 10 mg in WFI-USP (water for injection), read-out: 0.5 ml Soluble (0.02 g/ml; 20 mg/ml)): > 20 mg/mL
- solubility (water for injection (WFI-USP), 10 mg in WFI-USP (water for injection), read-out: 1 ml Sparingly soluble (0.01 g/ml; 10 mg/ml)): > 10 mg/mL
- solubility (water for injection (WFI-USP), 0.1 ml Freely soluble (0.1 g/ml), 10 mg in WFI-USP (water for injection)): < 100 mg/mL
- solubility (water for injection (WFI-USP), 10 ml Slightly soluble (0.001 g/ml; 1 mg/ml), 10 mg in WFI-USP (water for injection)): > 1 mg/mL
